Drawing on patent publication US7410635B2 (priority 2003, dated 2008), this text covers average degradation for one molecule.

Each structure is given as a SMILES string.

For the data set the following is noted: pH 3.

Turning to `C=CCC1(CC(C)C)C(=O)NC(=O)NC1=O` [Butalbital, 5-(2-Methylpropyl)-5-(2-propenyl)-2,4,6(1H,3H,5H) -pyrim idinetrione], the average degradation stood at 1.2%.
